Reference: patent US20220054541A1, “METHOD FOR TREATING INFLAMMATORY BOWEL DISEASES” (NovMetaPharma Co., Ltd., priority 2020, published 2022)
“Also recorded” adds a separate entry of the source.

Columns and labels:
[1] = pKa of CHP hydrate material; type: physicochemical
[2] = test system: DSS-induced colitis model mice; experiment: DSS-induced colitis model mice (body weight, disease score, survival, colon length, histology); type: in vivo, Male C57BL/6J Jms Slc mice
Method: Male C57BL/6J Jms Slc mice (8-week old) were fed with 4% dextran sulfate sodium (DSS) in water in place of drinking water for 9 days, followed by feeding drinking water for 3 days, inducing colitis in the mice. Mice were divided into three groups: (1) CRP40 group administered orally with CHP monohydrate (40 mg/kg body weight/day); (2) CycloZ40 group administered orally with a combination of CHP monohydrate 40 mg/kg+Zn gluconate 70 mg/kg; and (3) vehicle (control) group fed with drinking water. CHP hydrate and combination of CHP hydrate+Zn gluconate were administered to the animals starting from 3 days prior to the DSS administration and continued for 12 days until the animals were sacrificed. The above amount of the CHP monohydrate and the combination of CHP monohydrate and Zn gluconate were administered daily.
At day 12, the animals were sacrificed and their colon lengths were measured.
The intestinal tissues were fixed, paraffin-embedded, and stained with hematoxylin and eosin.
Histopathological evaluation of colon was scored according to the grading system listed below.

[3] = test system: muscle tissues and intestinal segments; conditions: cited from earlier work

| SMILES | pKa [1] | histological scores ([2]; DSS-induced colitis mice, compared with control (vehicle) group) | histological examination of intestinal tissue (H&E) ([2]; DSS-induced colitis mice, epithelial lining, submucosa thickness, lymphatic infiltration, compared with vehicle group) | survival rate ([2]; DSS-induced colitis mice, experimental period of 14 days, CHP monohydrate 40 mg/kg/day, or plus Zn gluconate 70 mg/kg, about 70% of vehicle group died) | weight loss (body weight changes) ([2]; DSS-induced colitis mice, oral daily CHP monohydrate 40 mg/kg/day, day 12, compared with CycloZ40 and vehicle groups) | disease score (disease activity: weight loss, stool consistency, blood) ([2]; DSS-induced colitis mice, oral daily CHP monohydrate 40 mg/kg/day, day 12, compared with CycloZ40 and vehicle groups, monohydrate) | colon length ([2]; DSS-induced colitis mice, sacrificed at day 12, compared with vehicle and CycloZ40 groups) | zinc absorption and uptake [3] | protection of intestine ([2]; CHP alone 40 mg/kg/day as monohydrate compared with combination of CHP 40 mg/kg/day and Zn 70 mg/kg as zinc gluconate) |
| --- | --- | --- | --- | --- | --- | --- | --- | --- | --- |
| O=C1N[C@@H](Cc2cnc[nH]2)C(=O)N2CCC[C@@H]12 [CRP40, CHP monohydrate] | ~6.4 | histologically more resistant to intestinal inflammation | protected from intestinal tissue damage | survived until the end of the experiment | the least | greatly improved; also recorded: the lowest | longest |  |  |
| O=C1N[C@@H](Cc2cnc[nH]2)C(=O)N2CCC[C@@H]12 [CHP, Cyclo(-His-Pro)] |  |  |  |  |  |  |  | enhanced zinc absorption and uptake | greater protection of intestine |
